In brackets after ≈: the same amount, converted by molar mass. Activity calls are given as the source filed them. No cut-off for these calls is given here.
How the values were obtained:
Staphylococcus aureus [1] = assay: Antibacterial activity against Staphylococcus aureus 4299 assessed as inhibition of bacterial growth; format: functional
[2] = system: Staphylococcus saprophyticus; assay: Antibacterial activity against Staphylococcus saprophyticus ATCC 49453 assessed as inhibition of bacterial growth; format: functional
Staphylococcus aureus [3] = assay: Antibacterial activity against methicilin-resistant Staphylococcus aureus 42412 assessed as inhibition of bacterial growth; format: functional
[4] = Hemolytic activity in rabbit erythrocytes assessed as hemolysis at 512 microg/ml relative to control; format: toxicity, cell-based, Oryctolagus cuniculus, Erythrocyte; conditions: at 512 µg/mL, read-out: Activity
Staphylococcus aureus [5] = assay: Bactericidal activity against methicilin-resistant Staphylococcus aureus 21455 assessed as reduction in bacterial colony forming unit at 16 times MIC observed after 24 hrs by time-kill kinetic assay; format: functional, organism-based
Staphylococcus aureus [6] = assay: Antibacterial activity against Staphylococcus aureus 29213 assessed as inhibition of bacterial growth; format: functional
[7] = system: Staphylococcus epidermidis; assay: Antibacterial activity against Staphylococcus epidermidis 12228 assessed as inhibition of bacterial growth; format: functional
Enterococcus faecium [8] = assay: Antibacterial activity against Vancomycin-resistant Enterococcus […] ATCC 29212 assessed as inhibition of bacterial growth; format: functional; conditions: Enterococcus faecalis
[9] = system: Staphylococcus saprophyticus; assay: Antibacterial activity against Staphylococcus saprophyticus ATCC 15305 assessed as inhibition of bacterial growth; format: functional
Cell membrane [10] = assay: Induction of cytoplasmic membrane depolarization in methicilin-resistant Staphylococcus aureus 21455 at 8 times MIC by DiSC3(5) dye-based fluorescence assay
Bacillus cereus = assay: Antibacterial activity against Bacillus cereus ATCC 11788 assessed as inhibition of bacterial growth; format: functional
Enterococcus faecium [11] = assay: Antibacterial activity against Vancomycin-resistant Enterococcus […] ATCC 700802 assessed as inhibition of bacterial growth; format: functional
Staphylococcus aureus [12] = assay: Antibacterial activity against methicilin-resistant Staphylococcus aureus 1003 assessed as inhibition of bacterial growth; format: functional
Cell membrane [13] = assay: Induction of cell membrane […] in methicilin-resistant Staphylococcus aureus 21455 assessed as increase in fluorescence intensity at 8 times MIC by SYTOX green dye based fluorescence analysis; format: cell membranes
Staphylococcus aureus [14] = assay: Bactericidal activity against methicilin-resistant Staphylococcus aureus 21455 assessed as inhibition of bacterial growth at >=8 times MIC by time-kill kinetic assay; format: functional, organism-based
Cell membrane [15] = assay: Induction of cell membrane […] in methicilin-resistant Staphylococcus aureus 21455 assessed as increase in fluorescence intensity at 16 times MIC by SYTOX green dye based fluorescence analysis; format: cell membranes
Staphylococcus aureus [16] = assay: Bactericidal activity against methicilin-resistant Staphylococcus aureus 21455 assessed as reduction in bacterial colony forming unit at 16 times MIC observed after 8 hrs by time-kill kinetic assay; format: functional, organism-based
[17] = system: Staphylococcus saprophyticus; assay: Antibacterial activity against Staphylococcus saprophyticus ATCC 49907 assessed as inhibition of bacterial growth; format: functional
Cell membrane [18] = assay: Induction of cytoplasmic membrane depolarization in methicilin-resistant Staphylococcus aureus 21455 at 16 times MIC by DiSC3(5) dye-based fluorescence assay
Bacillus subtilis = assay: Antibacterial activity against Bacillus subtilis ATCC 6633 assessed as inhibition of bacterial growth; format: functional
Staphylococcus aureus [19] = assay: Bactericidal activity against methicilin-resistant Staphylococcus aureus 21455 assessed as reduction in bacterial growth by measuring minimum bactericidal concentration at 16 times MIC by time-kill kinetic assay; format: functional
Enterococcus faecium [20] = assay: Antibacterial activity against Vancomycin-resistant Enterococcus faecium 1014 assessed as inhibition of bacterial growth; format: functional
Staphylococcus aureus [21] = assay: Antibacterial activity against methicilin-resistant Staphylococcus aureus ATCC 700699 assessed as inhibition of bacterial growth; format: functional
Staphylococcus aureus [22] = assay: Antibacterial activity against methicilin-resistant Staphylococcus aureus 21455 assessed as inhibition of bacterial growth; format: functional
[23] = system: Staphylococcus saprophyticus; assay: Antibacterial activity against Staphylococcus saprophyticus ATCC BAA 750 assessed as inhibition of bacterial growth; format: functional

SMILES | MIC (Staphylococcus aureus [1]) | MIC [2] | MIC (Staphylococcus aureus [3]) | MIC (Staphylococcus aureus [6]) | MIC [7] | MIC (Enterococcus faecium [8]) | MIC [9] | MIC (Bacillus cereus) | MIC (Enterococcus faecium [11]) | MIC (Staphylococcus aureus [12]) | MIC [17] | MIC (Bacillus subtilis) | MIC (Enterococcus faecium [20]) | MIC (Staphylococcus aureus [21]) | MIC (Staphylococcus aureus [22]) | MIC [23] | also measured
CC[C@H](C)[C@H](NC(=O)[C@@H](Cc1ccccc1)NC)C(=O)N[C@@H](CO)C(=O)N[C@H](CCC(N)=O)C(=O)N[C@@H](C(=O)N[C@H](C(=O)N[C@@H](CO)C(=O)N[C@H]1C(=O)N[C@@H](C)C(=O)N[C@@H](C2CCCCC2)C(=O)N[C@@H]([C@@H](C)CC)C(=O)O[C@H]1C)[C@@H](C)CC)[C@@H](C)CC | 0.063 µg/mL (≈ 0.0513 µM) | < 0.063 µg/mL | 0.063 µg/mL (≈ 0.0513 µM) | 0.063 µg/mL (≈ 0.0513 µM) | 0.063 µg/mL (≈ 0.0513 µM) | 0.125 µg/mL (≈ 0.102 µM) | < 0.063 µg/mL | 0.063 µg/mL (≈ 0.0513 µM) | 0.063 µg/mL (≈ 0.0513 µM) | 0.063 µg/mL (≈ 0.0513 µM) | 0.063 µg/mL (≈ 0.0513 µM) | 0.063 µg/mL (≈ 0.0513 µM) | 0.25 µg/mL (≈ 0.204 µM) | 0.125 µg/mL (≈ 0.102 µM) | 0.125 µg/mL (≈ 0.102 µM) | 0.063 µg/mL (≈ 0.0513 µM) | hemolysis at 512 microg/ml [4]: ≤ 2%; Activity (Staphylococcus aureus [5]): Active; Activity (Cell membrane [10]): inactive; Activity (Cell membrane [13]): 8.8%; Activity (Staphylococcus aureus [14]): Active; Activity (Cell membrane [15]): 10.6%; Activity (Staphylococcus aureus [16]): Active; Activity (Cell membrane [18]): inactive; MBC (Staphylococcus aureus [19]): 2 µg/mL (≈ 1.63 µM)
CCC[C@@H]1NC(=O)[C@H](CCCNC(=N)N)NC(=O)[C@H](NC(=O)[C@H](CO)NC(=O)[C@@H](NC(=O)[C@H](NC(=O)[C@@H](CCCNC(=N)N)NC(=O)[C@H](CO)NC(=O)[C@@H](NC(=O)[C@@H](Cc2ccccc2)NC)[C@@H](C)CC)[C@@H](C)CC)[C@@H](C)CC)[C@H](C)OC(=O)[C@H]([C@@H](C)CC)NC1=O | 0.063 µg/mL (≈ 0.0484 µM) | 0.063 µg/mL (≈ 0.0484 µM) | 0.125 µg/mL (≈ 0.0961 µM) | 0.25 µg/mL (≈ 0.192 µM) | 0.063 µg/mL (≈ 0.0484 µM) | 2 µg/mL (≈ 1.54 µM) | 0.063 µg/mL (≈ 0.0484 µM) | 1 µg/mL (≈ 0.769 µM) | 1 µg/mL (≈ 0.769 µM) | 1 µg/mL (≈ 0.769 µM) | 0.063 µg/mL (≈ 0.0484 µM) | 0.5 µg/mL (≈ 0.384 µM) | 2 µg/mL (≈ 1.54 µM) | 0.5 µg/mL (≈ 0.384 µM) | 0.5 µg/mL (≈ 0.384 µM) | 0.063 µg/mL (≈ 0.0484 µM) | 
CCC[C@@H]1NC(=O)[C@H](CCCNC(=N)N)NC(=O)[C@H](NC(=O)[C@H](CO)NC(=O)[C@@H](NC(=O)[C@H](NC(=O)[C@@H](CCCNC(=N)N)NC(=O)[C@H](CCCNC(=N)N)NC(=O)[C@@H](NC(=O)[C@@H](Cc2ccccc2)NC)[C@@H](C)CC)[C@@H](C)CC)[C@@H](C)CC)[C@H](C)OC(=O)[C@H]([C@@H](C)CC)NC1=O | 16 µg/mL (≈ 11.7 µM) | 0.25 µg/mL (≈ 0.183 µM) | 32 µg/mL (≈ 23.4 µM) | 16 µg/mL (≈ 11.7 µM) | 2 µg/mL (≈ 1.46 µM) | 32 µg/mL (≈ 23.4 µM) | 0.25 µg/mL (≈ 0.183 µM) | 2 µg/mL (≈ 1.46 µM) | 32 µg/mL (≈ 23.4 µM) | > 32 µg/mL | 0.5 µg/mL (≈ 0.365 µM) | 16 µg/mL (≈ 11.7 µM) | 8 µg/mL (≈ 5.84 µM) | 32 µg/mL (≈ 23.4 µM) | 16 µg/mL (≈ 11.7 µM) | 0.5 µg/mL (≈ 0.365 µM) | 
CCC[C@@H]1NC(=O)[C@H](CCCNC(=N)N)NC(=O)[C@H](NC(=O)[C@H](CO)NC(=O)[C@@H](NC(=O)[C@H](NC(=O)[C@@H](CCC(N)=O)NC(=O)[C@H](CCCNC(=N)N)NC(=O)[C@@H](NC(=O)[C@@H](Cc2ccccc2)NC)[C@@H](C)CC)[C@@H](C)CC)[C@@H](C)CC)[C@H](C)OC(=O)[C@H]([C@@H](C)CC)NC1=O | 0.25 µg/mL (≈ 0.186 µM) | 0.063 µg/mL (≈ 0.047 µM) | 0.125 µg/mL (≈ 0.0932 µM) | 0.5 µg/mL (≈ 0.373 µM) | 0.063 µg/mL (≈ 0.047 µM) | 2 µg/mL (≈ 1.49 µM) | 0.125 µg/mL (≈ 0.0932 µM) | 1 µg/mL (≈ 0.745 µM) | 2 µg/mL (≈ 1.49 µM) | 1 µg/mL (≈ 0.745 µM) | 0.063 µg/mL (≈ 0.047 µM) | 0.063 µg/mL (≈ 0.047 µM) | 2 µg/mL (≈ 1.49 µM) | 0.25 µg/mL (≈ 0.186 µM) | 0.5 µg/mL (≈ 0.373 µM) | 0.063 µg/mL (≈ 0.047 µM) | 

From ChEMBL document CHEMBL5634143, “Development of teixobactin analogues containing hydrophobic, non-proteogenic amino acids that are highly potent against multidrug-resistant bacteria and biofilms” (Eur J Med Chem, 2023)
